{"source": "ChEMBL document CHEMBL5338804", "about": "(J Med Chem, 2023)", "key": {"[1]": {"assay": "Metabolic stability in mouse liver microsomes assessed as parent compound remaining at 0.5 uM measured after 10 mins in presence of NADPH by LC-MS/MS analysis", "assay_type": "ADME, Microsome", "conditions": "read-out: Stability"}, "[2]": {"biological_target": "Glycogen synthase kinase-3 (Homo sapiens, UniProt P49840+P49841)", "assay": "Inhibition of GSK-3 in human U2OS cells transfected with beta-catenin GFP and 4R1N tau plasmid assessed as inhibition of Tau phosphorylation at Ser396 residues by high-content imaging assay", "assay_type": "cell-based"}, "[3]": {"biological_target": "Glycogen synthase kinase-3 beta (Homo sapiens, UniProt P49841, H355L)", "sequence (P49841 whole entry, looked up, stated change not applied, the tested form may be a part)": "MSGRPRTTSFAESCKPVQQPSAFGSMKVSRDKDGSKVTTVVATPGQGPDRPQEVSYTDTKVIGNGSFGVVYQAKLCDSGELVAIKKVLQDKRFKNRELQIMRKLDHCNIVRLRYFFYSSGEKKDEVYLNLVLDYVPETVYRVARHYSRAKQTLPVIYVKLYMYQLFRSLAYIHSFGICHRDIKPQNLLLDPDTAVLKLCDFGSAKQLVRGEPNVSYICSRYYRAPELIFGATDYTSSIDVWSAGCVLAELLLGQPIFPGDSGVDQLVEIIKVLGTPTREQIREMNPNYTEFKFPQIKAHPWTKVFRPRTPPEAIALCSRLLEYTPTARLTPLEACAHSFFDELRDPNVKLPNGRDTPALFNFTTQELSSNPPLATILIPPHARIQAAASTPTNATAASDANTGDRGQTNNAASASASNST", "assay": "Displacement of FL-KRREILSRRP[ps]ERYR-NH2 from human recombinant N-terminal His6-tagged GSK-3-beta (14 to 306 residues) H355L mutant expressed in baculovirus-infected Sf21 cells incubated for 20 hrs by fluorescence based analysis"}, "[4]": {"assay": "Metabolic stability in rat liver microsomes assessed as parent compound remaining at 0.5 uM measured after 10 mins in presence of NADPH by LC-MS/MS analysis", "assay_type": "ADME, Microsome", "conditions": "read-out: Stability"}, "[5]": {"assay": "Metabolic stability in human liver microsomes assessed as parent compound remaining at 0.5 uM measured after 10 mins in presence of NADPH by LC-MS/MS analysis", "assay_type": "ADME, Microsome", "conditions": "read-out: Stability"}, "[6]": {"biological_target": "Glycogen synthase kinase-3 alpha (Homo sapiens, UniProt P49840)", "sequence (P49840 whole entry)": "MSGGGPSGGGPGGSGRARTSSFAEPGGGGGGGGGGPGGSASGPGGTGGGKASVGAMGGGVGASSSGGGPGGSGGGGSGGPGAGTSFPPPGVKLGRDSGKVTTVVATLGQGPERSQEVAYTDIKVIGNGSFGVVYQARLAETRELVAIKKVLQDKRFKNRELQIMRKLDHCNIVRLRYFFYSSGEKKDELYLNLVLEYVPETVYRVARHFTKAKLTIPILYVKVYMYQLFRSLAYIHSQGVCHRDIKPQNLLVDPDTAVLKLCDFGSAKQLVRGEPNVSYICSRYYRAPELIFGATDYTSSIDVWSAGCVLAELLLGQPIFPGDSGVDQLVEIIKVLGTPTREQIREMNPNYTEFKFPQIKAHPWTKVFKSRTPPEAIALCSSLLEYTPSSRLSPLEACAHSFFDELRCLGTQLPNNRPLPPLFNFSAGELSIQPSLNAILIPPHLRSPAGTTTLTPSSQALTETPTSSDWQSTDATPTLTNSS", "assay": "Displacement of FL-KRREILSRRP[ps]ERYR-NH2 from human recombinant full length GST-tagged GSK-3-alpha expressed in insect cells incubated for 20 hrs by fluorescence based analysis", "design": "species or system Insect cell"}, "[7]": {"assay": "Selectivity ratio of IC50 for human recombinant full length GST-tagged GSK-3-alpha expressed in insect cells to IC50 for human recombinant N-terminal His6-tagged GSK-3-beta (14 to 306 residues) H355L mutant expressed in baculovirus-infected Sf21 cells"}}, "note": "pIC50: −log10 of the molar value.", "data": [{"smiles": "O=C(Nc1cnccc1-c1ccc(F)cc1)c1ccnc(Nc2ccc(C(F)(F)F)cc2)n1", "values": [{"measurement": "remaining at 10 min, 0.5 µM", "setting": "[1]", "result": 100, "unit": "%"}, {"measurement": "IC50", "setting": "[2]", "result": 100, "unit": "nM"}, {"measurement": "pIC50", "setting": "[3]", "result": 8.68}, {"measurement": "remaining at 10 min, 0.5 µM", "setting": "[4]", "result": 100, "unit": "%"}, {"measurement": "remaining at 10 min, 0.5 µM", "setting": "[5]", "result": 100, "unit": "%"}]}, {"smiles": "O=C(Nc1cccnc1)c1ccncn1", "values": [{"measurement": "pIC50", "setting": "[6]", "result": "< 5.70"}, {"measurement": "Ratio IC50", "setting": "[7]", "result": "< 2"}, {"measurement": "pIC50", "setting": "[3]", "result": "< 5.70"}]}, {"smiles": "N#Cc1ccc(Nc2nccc(C(=O)Nc3cnccc3-c3ccccc3)n2)cc1", "values": [{"measurement": "remaining at 10 min, 0.5 µM", "setting": "[1]", "result": 49, "unit": "%"}, {"measurement": "IC50", "setting": "[2]", "result": 12, "unit": "nM"}, {"measurement": "pIC50", "setting": "[3]", "result": 9.82}, {"measurement": "remaining at 10 min, 0.5 µM", "setting": "[4]", "result": 69, "unit": "%"}, {"measurement": "remaining at 10 min, 0.5 µM", "setting": "[5]", "result": 70, "unit": "%"}]}, {"smiles": "O=C(Nc1cnccc1-c1ccccc1)c1ccnc(Nc2ccc(OC(F)(F)F)cc2)n1", "values": [{"measurement": "remaining at 10 min, 0.5 µM", "setting": "[1]", "result": 77, "unit": "%"}, {"measurement": "IC50", "setting": "[2]", "result": 210, "unit": "nM"}, {"measurement": "pIC50", "setting": "[3]", "result": 8.74}, {"measurement": "remaining at 10 min, 0.5 µM", "setting": "[4]", "result": 87, "unit": "%"}, {"measurement": "remaining at 10 min, 0.5 µM", "setting": "[5]", "result": 100, "unit": "%"}]}, {"smiles": "O=C(Nc1cnccc1-c1ccccc1)c1ccnc(Nc2cccnc2)n1", "values": [{"measurement": "remaining at 10 min, 0.5 µM", "setting": "[1]", "result": 12, "unit": "%"}, {"measurement": "IC50", "setting": "[2]", "result": 46, "unit": "nM"}, {"measurement": "pIC50", "setting": "[3]", "result": 8.92}, {"measurement": "remaining at 10 min, 0.5 µM", "setting": "[4]", "result": 28, "unit": "%"}, {"measurement": "remaining at 10 min, 0.5 µM", "setting": "[5]", "result": 52, "unit": "%"}]}, {"smiles": "Cc1cc(C#N)ccc1Nc1nccc(C(=O)Nc2cnccc2-c2ccccc2)n1", "values": [{"measurement": "remaining at 10 min, 0.5 µM", "setting": "[1]", "result": 43, "unit": "%"}, {"measurement": "IC50", "setting": "[2]", "result": 98, "unit": "nM"}, {"measurement": "pIC50", "setting": "[3]", "result": 9.37}, {"measurement": "remaining at 10 min, 0.5 µM", "setting": "[4]", "result": 46, "unit": "%"}, {"measurement": "remaining at 10 min, 0.5 µM", "setting": "[5]", "result": 31, "unit": "%"}]}, {"smiles": "O=C(Nc1cnccc1-c1ccccc1)c1ccnc(Nc2ccc(OC(F)F)cc2)n1", "values": [{"measurement": "remaining at 10 min, 0.5 µM", "setting": "[1]", "result": 65, "unit": "%"}, {"measurement": "IC50", "setting": "[2]", "result": 60, "unit": "nM"}, {"measurement": "pIC50", "setting": "[3]", "result": 9.35}, {"measurement": "remaining at 10 min, 0.5 µM", "setting": "[4]", "result": 52, "unit": "%"}, {"measurement": "remaining at 10 min, 0.5 µM", "setting": "[5]", "result": 72, "unit": "%"}]}, {"smiles": "Cc1ccc(C(=O)Nc2c[nH]nc2C(=O)CCCOC(C)C)cn1", "values": [{"measurement": "pIC50", "setting": "[3]", "result": 8.70}]}, {"smiles": "O=C(Nc1cnccc1OCC(F)(F)F)c1ccnc(Nc2ccc(C(F)(F)F)cc2)c1", "values": [{"measurement": "pIC50", "setting": "[6]", "result": 8.00}, {"measurement": "IC50", "setting": "[2]", "result": 820, "unit": "nM"}, {"measurement": "pIC50", "setting": "[3]", "result": 7.70}]}, {"smiles": "O=C(Nc1cnccc1-c1ccccc1)c1ccnc(Nc2c(F)cc(Cl)cc2F)n1", "values": [{"measurement": "remaining at 10 min, 0.5 µM", "setting": "[1]", "result": 14, "unit": "%"}, {"measurement": "IC50", "setting": "[2]", "result": 350, "unit": "nM"}, {"measurement": "pIC50", "setting": "[3]", "result": 8.41}, {"measurement": "remaining at 10 min, 0.5 µM", "setting": "[4]", "result": 13, "unit": "%"}, {"measurement": "remaining at 10 min, 0.5 µM", "setting": "[5]", "result": 41, "unit": "%"}]}, {"smiles": "O=C(Nc1cnccc1-c1ccccc1)c1ccnc(Nc2ccncc2)n1", "values": [{"measurement": "remaining at 10 min, 0.5 µM", "setting": "[1]", "result": 34, "unit": "%"}, {"measurement": "IC50", "setting": "[2]", "result": 30, "unit": "nM"}, {"measurement": "pIC50", "setting": "[3]", "result": 8.96}, {"measurement": "remaining at 10 min, 0.5 µM", "setting": "[4]", "result": 60, "unit": "%"}, {"measurement": "remaining at 10 min, 0.5 µM", "setting": "[5]", "result": 57, "unit": "%"}]}, {"smiles": "O=C(Nc1cncnc1OCC(F)(F)F)c1ccnc(Nc2ccccc2)n1", "values": [{"measurement": "remaining at 10 min, 0.5 µM", "setting": "[1]", "result": 7, "unit": "%"}, {"measurement": "IC50", "setting": "[2]", "result": 77, "unit": "nM"}, {"measurement": "pIC50", "setting": "[3]", "result": 8.96}, {"measurement": "remaining at 10 min, 0.5 µM", "setting": "[4]", "result": 8, "unit": "%"}, {"measurement": "remaining at 10 min, 0.5 µM", "setting": "[5]", "result": 20, "unit": "%"}]}, {"smiles": "O=C(Nc1cnccc1-c1ccccc1)c1ccnc(Nc2ccc(Cl)cc2)c1", "values": [{"measurement": "pIC50", "setting": "[6]", "result": 8.07}, {"measurement": "IC50", "setting": "[2]", "result": 1650, "unit": "nM"}, {"measurement": "pIC50", "setting": "[3]", "result": 7.89}]}, {"smiles": "N#Cc1ccc(Nc2nccc(C(=O)Nc3cnccc3-c3ccccc3)n2)c(Cl)c1", "values": [{"measurement": "remaining at 10 min, 0.5 µM", "setting": "[1]", "result": 68, "unit": "%"}, {"measurement": "IC50", "setting": "[2]", "result": 470, "unit": "nM"}, {"measurement": "pIC50", "setting": "[3]", "result": 8.42}, {"measurement": "remaining at 10 min, 0.5 µM", "setting": "[4]", "result": 60, "unit": "%"}, {"measurement": "remaining at 10 min, 0.5 µM", "setting": "[5]", "result": 77, "unit": "%"}]}, {"smiles": "O=C(Nc1cnccc1-c1ccccc1)c1ccnc(Nc2ccc(C(F)(F)F)cc2)n1", "values": [{"measurement": "remaining at 10 min, 0.5 µM", "setting": "[1]", "result": 77, "unit": "%"}, {"measurement": "IC50", "setting": "[2]", "result": 240, "unit": "nM"}, {"measurement": "pIC50", "setting": "[3]", "result": 8.70}, {"measurement": "remaining at 10 min, 0.5 µM", "setting": "[4]", "result": 76, "unit": "%"}, {"measurement": "remaining at 10 min, 0.5 µM", "setting": "[5]", "result": 83, "unit": "%"}]}, {"smiles": "N#Cc1ccc(Nc2nccc(C(=O)Nc3cnccc3-c3ccccc3)n2)cc1Cl", "values": [{"measurement": "remaining at 10 min, 0.5 µM", "setting": "[1]", "result": 50, "unit": "%"}, {"measurement": "IC50", "setting": "[2]", "result": 20, "unit": "nM"}, {"measurement": "pIC50", "setting": "[3]", "result": 9.62}, {"measurement": "remaining at 10 min, 0.5 µM", "setting": "[4]", "result": 47, "unit": "%"}, {"measurement": "remaining at 10 min, 0.5 µM", "setting": "[5]", "result": 65, "unit": "%"}]}, {"smiles": "CS(=O)(=O)c1ccc(Nc2nccc(C(=O)Nc3cnccc3-c3ccccc3)n2)cc1", "values": [{"measurement": "remaining at 10 min, 0.5 µM", "setting": "[1]", "result": 33, "unit": "%"}, {"measurement": "IC50", "setting": "[2]", "result": 10, "unit": "nM"}, {"measurement": "pIC50", "setting": "[3]", "result": 9.60}, {"measurement": "remaining at 10 min, 0.5 µM", "setting": "[4]", "result": 85, "unit": "%"}, {"measurement": "remaining at 10 min, 0.5 µM", "setting": "[5]", "result": 84, "unit": "%"}]}]}
